For two compounds, IC50 results are on record in US20230212159A1, “Process for the Production of Ferroportin Inhibitors” (Vifor (International) AG, priority 2020, published 2023).

The experiment addresses T1, human Fpn (Homo sapiens, UniProt Q9NP59).
T1 construct: FLAG (C); made in house; host or cells: Pichia pastoris
T1 sequence (Q9NP59 1-571): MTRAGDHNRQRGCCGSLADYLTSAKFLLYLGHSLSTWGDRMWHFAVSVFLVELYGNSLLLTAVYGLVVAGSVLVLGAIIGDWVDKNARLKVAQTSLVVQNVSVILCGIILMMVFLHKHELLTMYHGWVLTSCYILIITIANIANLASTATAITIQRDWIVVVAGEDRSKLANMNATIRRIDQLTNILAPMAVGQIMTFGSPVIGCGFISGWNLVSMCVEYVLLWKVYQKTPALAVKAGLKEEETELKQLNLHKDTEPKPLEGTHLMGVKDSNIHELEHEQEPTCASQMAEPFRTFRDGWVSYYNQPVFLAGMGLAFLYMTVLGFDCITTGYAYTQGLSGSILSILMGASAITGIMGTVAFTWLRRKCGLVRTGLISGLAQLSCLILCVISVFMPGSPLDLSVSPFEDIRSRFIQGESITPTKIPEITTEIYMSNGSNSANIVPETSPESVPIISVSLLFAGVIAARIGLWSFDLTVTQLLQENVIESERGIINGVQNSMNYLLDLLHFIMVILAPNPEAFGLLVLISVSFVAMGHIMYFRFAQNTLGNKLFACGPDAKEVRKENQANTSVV
Description: Biophysical ferroportin-hepcidin binding assay (fluorescence polarization). The note with it: TMR-hepcidin, tested as 3HCl-salts, n=2, read-out: Biophysical Ferroportin-Hepcidin Binding (FP) IC50. On the procedure: This biophysical assay was developed to confirm inhibition of hepcidin binding to ferroportin (Fpn) more directly. Incubation of TMR-hepcidin with purified human Fpn isolated from Pichia pastoris yeast cells expressing human Fpn with a C-terminal FLAG affinity tag (Bonaccorsi di Patti, 2014) leads to increased fluorescence polarization (FP) of the TMR-hepcidin ligand.
A mixture of […] human Fpn and 30 nM TMR-hepcidin in FP assay buffer containing 50 mM Tris-HCI pH 7.3, 200 mM NaCI, 0.02% DDM, 0.1% BSA was plated into a 384 well black low volume round bottom plate (Corning, Cat. 3677) at […] per well. […] of serial dilutions of test compounds were added in duplicates to reach final Fpn and TMR-hepcidin concentrations of […] and 20 nM, respectively. Plates were incubated for 90 minutes at room temperature and parallel (S) and perpendicular (P) fluorescence was measured in a Synergy H1 fluorescence reader (BioTek). FP values were calculated in mP according to the following formula.
IC50 values were determined with the calculated mP values as described for the hepcidin internalization assay and are listed in Table 2.
(In general: Fluorescence polarisation rises when a labelled molecule tumbles more slowly, as on binding a larger partner.)

pIC50: −log10 of the molar value.

The pIC50 is −log10 of the IC50, conventionally taken in molar units. With `O=C(NCc1ncccc1F)c1coc(CCNCCc2nc3ccccc3[nH]2)n1` [Compound (II)], the pIC50 was 7.55.

For `O=C(NCc1ncccc1Br)c1coc(CCNCCc2nc3ccccc3[nH]2)n1` [Compound (II′)], the negative-log IC50 (pIC50) is 7.55.
